Assay results: ChEMBL document CHEMBL1201862, “PubChem BioAssay data set” (2004)
Calls of active or inactive are those of the source.

Columns and labels:
[1] = molecular target: T1, Oxysterols receptor LXR-beta (Homo sapiens, UniProt P55055); format: functional, cell-based;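 also: agonist activity at LXR measured by a cell-based luminescence readout across a dose range, run as a counterscreen for daf-12 agonists; HEK293 cells with Gal4-LXR fusion and GAL4-driven luciferase reporter; potency for activation of Gal4-LXR reporter so compounds are agonists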
T1 sequence (P55055 whole entry): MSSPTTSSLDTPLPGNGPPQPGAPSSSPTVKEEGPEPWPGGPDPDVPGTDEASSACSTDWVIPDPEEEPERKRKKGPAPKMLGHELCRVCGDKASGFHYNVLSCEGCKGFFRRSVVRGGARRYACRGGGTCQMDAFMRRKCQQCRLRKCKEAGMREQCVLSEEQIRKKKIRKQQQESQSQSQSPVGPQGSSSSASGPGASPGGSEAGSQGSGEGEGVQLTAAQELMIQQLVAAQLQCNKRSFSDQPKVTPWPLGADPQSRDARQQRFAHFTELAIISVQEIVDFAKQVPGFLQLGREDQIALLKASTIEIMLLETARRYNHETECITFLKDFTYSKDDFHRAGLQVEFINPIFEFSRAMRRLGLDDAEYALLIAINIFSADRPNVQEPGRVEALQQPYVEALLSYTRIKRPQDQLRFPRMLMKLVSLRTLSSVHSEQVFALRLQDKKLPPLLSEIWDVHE

[2] = molecular target: Nuclear receptor subfamily 5 group A member 2 (Homo sapiens, UniProt O00482); format: functional, cell-based;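 also: HEK293T cells transfected with LRH-1 and a StAR promoter luciferase reporter; potency for inhibitors that lower LRH-1 driven reporter light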
[3] = molecular target: Steroidogenic factor 1 (Homo sapiens, UniProt Q13285); assay: Counterscreen for inverse agonists of the liver receptor homolog-1 (LRH-1; NR5A2): Luminescence-based cell-based high throughput dose response assay to identify inverse agonists of the Steroidogenic Factor 1 Nuclear Receptor (SF1; NR5A1).; format: functional
[4] = StAR promoter reporter inhibition counter-screen, dose response, counter-screen for LRH-1 inverse agonist project, cell-based, luminescence, luciferase reporter (AID 651969); format: functional
[5] = molecular target: T2, Disintegrin and metalloproteinase domain-containing protein 17 (Homo sapiens, UniProt P78536); assay: ADAM17 protease inhibitors, dose response, counter-screen for ADAM10 exosite inhibitor project, biochemical, quenched FRET substrate (AID 743253)
[6] = ADAM10 inhibitors, peptide cleavage, dose response, biochemical, QFRET (AID 743254);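 also: ADAM10 enzyme with the DM2 quenched FRET peptide as substrate; EDANS fluorescence gain as the protease cuts the substrate; inhibitor potency against ADAM10 proteolytic activity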
[7] = molecular target: T2, Disintegrin and metalloproteinase domain-containing protein 17; assay: exosite inhibitors of ADAM17, dose response, biochemical (AID 743260)
[8] = CRF-BP/CRF-R2 complex antagonists, dose response, cell-based, uHTS hits, 384-well (AID 651639); format: functional, Homo sapiens; details: read-out: IC50_Mean
[9] = molecular target: T3, Corticotropin-releasing factor receptor 2/Corticotropin-releasing factor-binding protein (Homo sapiens, UniProt P24387+Q13324); assay: activators of CRF receptor 2 with binding protein – uHTS hits, confirmation (AID 602473); format: functional; details: read-out: EC50_Mean
T3 sequence (Q13324 whole entry): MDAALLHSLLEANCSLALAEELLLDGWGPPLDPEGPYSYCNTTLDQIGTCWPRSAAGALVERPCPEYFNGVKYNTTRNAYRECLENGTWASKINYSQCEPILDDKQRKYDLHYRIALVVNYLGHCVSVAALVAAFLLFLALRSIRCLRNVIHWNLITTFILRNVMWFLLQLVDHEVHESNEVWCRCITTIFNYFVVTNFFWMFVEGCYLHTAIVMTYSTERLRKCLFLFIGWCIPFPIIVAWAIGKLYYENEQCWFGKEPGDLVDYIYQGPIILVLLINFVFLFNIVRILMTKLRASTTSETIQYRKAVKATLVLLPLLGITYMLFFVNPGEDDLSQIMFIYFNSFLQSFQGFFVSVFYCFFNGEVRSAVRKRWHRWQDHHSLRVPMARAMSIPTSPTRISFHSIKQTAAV
T3 sequence (P24387 whole entry): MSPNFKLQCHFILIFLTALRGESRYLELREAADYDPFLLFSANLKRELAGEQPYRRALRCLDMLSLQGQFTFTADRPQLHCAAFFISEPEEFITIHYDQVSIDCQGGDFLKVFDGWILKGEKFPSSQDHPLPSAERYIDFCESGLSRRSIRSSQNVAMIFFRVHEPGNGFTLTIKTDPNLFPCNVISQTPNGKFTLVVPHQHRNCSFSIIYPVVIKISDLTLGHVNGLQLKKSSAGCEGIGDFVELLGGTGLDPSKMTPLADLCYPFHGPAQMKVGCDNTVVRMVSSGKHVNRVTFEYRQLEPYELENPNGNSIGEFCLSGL

[10] = molecular target: T3, Corticotropin-releasing factor receptor 2/Corticotropin-releasing factor-binding protein; assay: Dose Response confirmation of uHTS hits for small molecule antagonists of the CRF-binding protein and CRF-R2 receptor complex.; format: functional; details: read-out: IC50_Mean
[11] = molecular target: T4, Streptokinase A (Streptococcus pyogenes serotype M1, UniProt P10520); assay: S. pyogenes streptokinase expression inhibitors, potency, dose response, plasminogen activation absorbance, OD405 (AID 1914); format: functional, Streptococcus pyogenes M1 GAS;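 also: secreted streptokinase activity via plasminogen activation per viability signal from cell pellet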
T4 sequence (P10520 whole entry): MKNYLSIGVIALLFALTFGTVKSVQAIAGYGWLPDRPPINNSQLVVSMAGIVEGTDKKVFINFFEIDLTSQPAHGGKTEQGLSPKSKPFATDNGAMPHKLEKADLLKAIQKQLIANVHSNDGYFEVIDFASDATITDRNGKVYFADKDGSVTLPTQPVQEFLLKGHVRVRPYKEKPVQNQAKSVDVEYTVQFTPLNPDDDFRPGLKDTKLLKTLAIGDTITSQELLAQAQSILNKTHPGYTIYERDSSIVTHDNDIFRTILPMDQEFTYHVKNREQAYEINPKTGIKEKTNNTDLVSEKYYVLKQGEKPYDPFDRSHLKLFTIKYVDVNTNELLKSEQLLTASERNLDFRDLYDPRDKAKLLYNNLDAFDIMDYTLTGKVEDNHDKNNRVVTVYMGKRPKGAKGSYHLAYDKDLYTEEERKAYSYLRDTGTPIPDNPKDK

[12] = inhibitors of firefly luciferase expression or activity, dose response, H4 neuroglioma cells, luminescence (AID 1990); format: functional, cell-based
[13] = tested on: Streptococcus; assay: Group A Streptococcus viability loss, dose response, counter-screen for streptokinase expression inhibitor project, luminescence, BacTiterGlo (AID 1915); format: functional, organism-based;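 also: potency for reduction of bacterial viability or growth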
[14] = inhibitors of SNCA 5'UTR-driven reporter translation, confirmation, H4 neuroglioma cells, luminescence (AID 1988); format: functional, cell-based
[15] = tested on: Streptococcus sp. 'group A'; assay: growth inhibition of control SK(-) GAS strain, dose response, counter-screen for streptokinase expression inhibitor project, luminescence, kanamycin, BacTiterGlo, confirmation (AID 1900); format: functional, organism-based
[16] = Luminescence Cell-Based Dose Response HTS to Identify Inhibitors of 5'UTR Stem-Loop Driven Prion Protein mRNA Translation in H4 Neuroglioblastoma Cells. [Related pubchem assays: 1827 (Project Summary), 1813 (Primary HTS)]; format: functional
[17] = molecular target: T5, Nuclear receptor subfamily 0 group B member 1 (Homo sapiens, UniProt P51843); format: functional, cell-based;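 also: HEK293T cells transfected with SF-1 and DAX-1 plus StAR promoter luciferase reporter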
T5 sequence (P51843 whole entry): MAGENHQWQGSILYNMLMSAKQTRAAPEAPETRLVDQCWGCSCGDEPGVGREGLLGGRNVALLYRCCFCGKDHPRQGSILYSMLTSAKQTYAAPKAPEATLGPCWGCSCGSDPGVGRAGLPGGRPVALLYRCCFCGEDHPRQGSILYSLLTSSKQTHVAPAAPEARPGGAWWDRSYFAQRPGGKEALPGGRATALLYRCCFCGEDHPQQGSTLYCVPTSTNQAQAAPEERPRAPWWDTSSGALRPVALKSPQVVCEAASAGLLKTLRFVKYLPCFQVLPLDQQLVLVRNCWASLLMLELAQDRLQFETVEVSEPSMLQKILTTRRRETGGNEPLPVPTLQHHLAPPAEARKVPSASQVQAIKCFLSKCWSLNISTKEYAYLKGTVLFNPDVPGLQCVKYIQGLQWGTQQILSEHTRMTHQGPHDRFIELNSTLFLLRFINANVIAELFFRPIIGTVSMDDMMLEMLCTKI

[18] = cells; format: functional, cell-based
[19] = molecular target: T6, Caspase-6 (Homo sapiens, UniProt P55212); assay: human caspase-6 inhibitors, dose response, biochemical, VEID-R110 fluorescence, cherry-pick (AID 720632)
T6 sequence (P55212 whole entry): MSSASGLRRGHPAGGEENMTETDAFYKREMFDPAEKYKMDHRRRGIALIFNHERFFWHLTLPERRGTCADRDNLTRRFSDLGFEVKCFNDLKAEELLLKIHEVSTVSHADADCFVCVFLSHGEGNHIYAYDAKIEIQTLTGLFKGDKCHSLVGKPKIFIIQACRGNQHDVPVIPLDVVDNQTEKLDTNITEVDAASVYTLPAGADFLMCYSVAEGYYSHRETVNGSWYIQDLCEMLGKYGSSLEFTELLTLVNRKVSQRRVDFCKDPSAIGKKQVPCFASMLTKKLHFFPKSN

[20] = cells; format: functional, cell-based; remark: listed apart in the source
[21] = cells; format: functional, cell-based; remark: listed apart in the source
[22] = ADAM10 protease inhibitors, dose response, selectivity assay for ADAM17 exosite inhibitor project, biochemical, FRET peptide substrate, recombinant human ADAM10 (AID 743259);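 also: ADAM10 enzyme cleaving a FRET peptide substrate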

Sequence of Nuclear receptor subfamily 5 group A member 2 (O00482 whole entry): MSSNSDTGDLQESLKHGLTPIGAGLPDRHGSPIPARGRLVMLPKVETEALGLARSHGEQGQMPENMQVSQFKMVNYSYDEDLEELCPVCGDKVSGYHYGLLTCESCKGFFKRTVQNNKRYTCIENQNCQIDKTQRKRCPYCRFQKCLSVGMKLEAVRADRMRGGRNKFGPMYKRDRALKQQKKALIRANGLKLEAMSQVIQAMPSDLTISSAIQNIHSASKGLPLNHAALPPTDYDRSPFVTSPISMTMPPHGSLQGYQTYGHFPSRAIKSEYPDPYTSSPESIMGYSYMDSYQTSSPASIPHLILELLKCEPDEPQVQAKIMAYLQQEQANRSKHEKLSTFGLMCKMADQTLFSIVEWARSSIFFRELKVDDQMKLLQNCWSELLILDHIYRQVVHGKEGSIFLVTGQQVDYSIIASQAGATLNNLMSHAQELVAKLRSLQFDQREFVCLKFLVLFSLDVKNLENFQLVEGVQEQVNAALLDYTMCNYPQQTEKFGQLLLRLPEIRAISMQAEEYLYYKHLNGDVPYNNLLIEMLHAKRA
Sequence of Steroidogenic factor 1 (Q13285 whole entry): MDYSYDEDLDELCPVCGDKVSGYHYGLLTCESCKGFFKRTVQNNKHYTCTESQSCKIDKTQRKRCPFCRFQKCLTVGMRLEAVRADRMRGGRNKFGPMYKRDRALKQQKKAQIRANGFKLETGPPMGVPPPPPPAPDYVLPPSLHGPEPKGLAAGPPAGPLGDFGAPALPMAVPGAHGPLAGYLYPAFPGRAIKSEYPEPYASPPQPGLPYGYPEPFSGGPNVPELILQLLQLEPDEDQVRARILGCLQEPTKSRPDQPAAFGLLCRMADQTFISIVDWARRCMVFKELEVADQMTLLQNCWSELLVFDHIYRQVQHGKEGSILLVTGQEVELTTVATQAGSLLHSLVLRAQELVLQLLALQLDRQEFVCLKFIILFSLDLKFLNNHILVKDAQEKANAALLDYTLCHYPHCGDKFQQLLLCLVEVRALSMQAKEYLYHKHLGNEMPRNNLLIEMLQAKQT
T2 sequence (P78536 whole entry, the tested form may be a part): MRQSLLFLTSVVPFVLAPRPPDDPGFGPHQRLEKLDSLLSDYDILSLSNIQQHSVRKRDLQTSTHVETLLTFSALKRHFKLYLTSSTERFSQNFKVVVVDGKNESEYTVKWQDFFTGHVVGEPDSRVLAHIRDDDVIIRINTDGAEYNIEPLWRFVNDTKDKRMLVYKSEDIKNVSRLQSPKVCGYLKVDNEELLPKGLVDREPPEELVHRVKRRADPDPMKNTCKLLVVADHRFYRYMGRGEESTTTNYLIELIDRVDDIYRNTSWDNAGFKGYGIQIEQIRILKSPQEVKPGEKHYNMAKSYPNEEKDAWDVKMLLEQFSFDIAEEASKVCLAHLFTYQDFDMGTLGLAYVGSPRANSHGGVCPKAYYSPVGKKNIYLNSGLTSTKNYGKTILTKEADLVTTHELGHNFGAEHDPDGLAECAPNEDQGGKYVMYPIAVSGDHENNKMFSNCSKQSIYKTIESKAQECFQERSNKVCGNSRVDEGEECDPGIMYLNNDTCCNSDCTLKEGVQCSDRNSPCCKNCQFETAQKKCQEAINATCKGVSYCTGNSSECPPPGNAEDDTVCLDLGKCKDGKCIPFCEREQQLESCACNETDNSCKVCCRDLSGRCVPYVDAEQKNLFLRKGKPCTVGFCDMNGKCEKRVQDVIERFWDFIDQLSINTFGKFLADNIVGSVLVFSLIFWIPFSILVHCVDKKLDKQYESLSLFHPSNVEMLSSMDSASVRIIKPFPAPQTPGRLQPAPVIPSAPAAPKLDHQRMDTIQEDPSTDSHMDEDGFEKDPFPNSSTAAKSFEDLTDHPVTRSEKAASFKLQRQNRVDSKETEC

For `c1csc(-c2nnc(-c3ccc(N4CCOCC4)cc3)o2)c1`, the EC50 [1] was > 67.5 µM (inactive).
With `CCOc1ccc(OCCC(=O)OCC(=O)Nc2ccc3c(c2)OCCO3)cc1` the IC50 [2] was 35.9 µM (inactive), the IC50 [3] was 12.7 µM (inactive) and the IC50 [4] was 35.9 µM (inactive).
In the case of `CC(=O)c1cccc(NC(=O)C(OC(=O)c2ccccc2NS(=O)(=O)c2cccs2)c2ccccc2)c1` (stereo not drawn), the IC50 [5] is reported as > 69.5 µM (inactive), the IC50 [6] is reported as > 69.5 µM (inactive) and the IC50 [7] is reported as > 69.5 µM (inactive).
With `Cc1ccc(NC(=O)c2cc3c(s2)CCCC3)cc1S(=O)(=O)Nc1ccccc1Cl` the IC50 [5] was > 69.5 µM (inactive) and the IC50 [6] was > 69.5 µM (inactive).
For `CCOc1ccc(Cl)cc1S(=O)(=O)n1nnc2ccccc21`, the IC50 [8] was 2.16 µM (active), the EC50 [9] was > 53 µM (inactive) and the IC50 [10] was 3.56 µM (active).
For `Cn1cc(C(=O)c2ccc(Cl)cc2Cl)cc1C(=O)NN=C(N)COc1ccc(Cl)cc1Cl`, the EC50 [11] was > 150 µM (not active), the EC50 [12] was > 120 µM (not active) and the IC50 [5] was > 69.5 µM (inactive). The EC50 [13] was 43.9 µM (active), the EC50 [14] was 9.69 µM (active) and the EC50 [15] was 0.927 µM (active). For the same compound, the EC50 [16] was 24.3 µM (active) and the IC50 [6] was > 69.5 µM (inactive).
In the case of `Cc1cc(C(=O)CSc2nnc(N)s2)c(C)n1C1CC1`, the IC50 [17] is reported as > 67.6 µM (inactive) and the IC50 [18] is reported as > 67.6 µM (inactive).
In the case of `NC(=O)c1c(NC(=O)C2CC=CCC2C(=O)O)sc2c1CCCCC2` (stereo not drawn), the AC50 [19] is reported as 5.79 µM (active).
For `CC1CCc2c(sc(NC(=O)C3=COCCO3)c2C(N)=O)C1` (stereo not drawn), the EC50 [1] was > 67.5 µM (inactive).
With `COc1ccccc1NC(=O)CN1CCN(CC(=O)Nc2ccc3c(c2)OCCO3)CC1` the IC50 [2] was 4.02 µM (active), the IC50 [3] was 0.985 µM (active) and the IC50 [4] was 35.9 µM (inactive).
For `COc1ccc(C(=O)Nc2cc(=O)n(C)c(=O)n2C)cc1`, the IC50 [8] was > 20 µM (inactive), the EC50 [9] was > 53 µM (inactive) and the IC50 [10] was < 0.368 µM (active).
In the case of `CC1CCC2(CC1)NC(=O)N(CC(=O)Nc1ccc3c(c1)OCCCO3)C2=O` (stereo not drawn), the IC50 [2] is reported as 6.2 µM (active), the IC50 [3] is reported as 1.02 µM (active) and the IC50 [4] is reported as 35.9 µM (inactive).
For `Cc1ccsc1C(=O)OCC(=O)c1cc(C)n(C)c1C`, the IC50 [17] was > 0.278 µM (active) and the IC50 [18] was > 67.6 µM (inactive).
For `CCN(CC)C1Oc2cc3c(cc2C(c2cccc(OC)c2O)C1C)OCO3` (stereo not drawn), the IC50 [8] was 5.28 µM (active), the EC50 [9] was > 53 µM (inactive) and the IC50 [10] was 2.99 µM (active).
In the case of `O=C(Cc1nnc(O)nc1O)N/N=C/c1ccccc1O`, the IC50 [20] is reported as > 29.9 µM (inactive) and the EC50 [21] is reported as > 29.9 µM (inactive).
With `CNC(=O)C1CC(=O)N=C(N/N=C(\C)c2cccs2)S1` (stereo not drawn) the IC50 [22] was > 23.2 µM (inactive) and the IC50 [7] was > 69.5 µM (inactive).
In the case of `c1ccc(Nc2nc(-c3cccnc3)cs2)nc1`, the EC50 [1] is reported as > 67.6 µM (inactive).
